Source: patent US12577245B2, “Sulfonyl benzamide derivatives as Bcl-2 inhibitors” (ASCENTAGE PHARMA (SUZHOU) CO., LTD., priority 2021, dated 2026)

The compounds below were run against Bcl-2 G101V (Homo sapiens, UniProt P10415, G101V) (assay: Bcl-2 G101V inhibition, fluorescence polarization (Flu-BIM tracer) binding assay). Details: not given.

SMILES	IC50 [µM]
CC1(C)CCC(CN2CCN(c3ccc(C(=O)NS(=O)(=O)c4ccc(NC[C@H]5COCCO5)c([N+](=O)[O-])c4)c(Oc4cnc5[nH]ccc5c4)c3)CC2)=C(c2cc(C(=O)Nc3ccccc3)cs2)C1 [Example 17, (S)-5-(2-((4-(4-(((4-(((1,4-dioxan-2-yl)methyl)amino)-3-nitrophenyl)sulfonyl)carbamoyl)-3-((1H-pyrrolo[2,3-b]pyridin-5-yl)oxy)phenyl)piperazin-1-yl)methyl)-5,5-dimethylcyclohex-1-en-1-yl)-N-phenylthiophene-3-carboxamide]	0.0495

Same assay, conditions: FP; 20 nM Bcl2, 5 nM Flu-BIM, 1 h incubation; read-out: Bcl-2 G101V (FP)

SMILES	IC50 [µM]
Cc1sccc1C1=C(CN2CCN(c3ccc(C(=O)NS(=O)(=O)c4ccc(NCC5CCOCC5)c([N+](=O)[O-])c4)c(Oc4cnc5[nH]ccc5c4)c3)CC2)CCC(C)(C)C1 [Example 1, 2-((1H-pyrrolo[2,3-b]pyridin-5-yl)oxy)-4-(4-((4,4-dimethyl-2-(2-methylthiophen-3-yl)cyclohex-1-en-1-yl)methyl)piperazin-1-yl)-N-((3-nitro-4-(((tetrahydro-2H-pyran-4-yl)methyl)amino)phenyl)sulfonyl)benzamide]	0.0327
Cc1cscc1C1=C(CN2CCN(c3ccc(C(=O)NS(=O)(=O)c4ccc(NCC5CCOCC5)c([N+](=O)[O-])c4)c(Oc4cnc5[nH]ccc5c4)c3)CC2)CCC(C)(C)C1 [Example 2, 2-((1H-pyrrolo[2,3-b]pyridin-5-yl)oxy)-4-(4-((4,4-dimethyl-2-(4-methylthiophen-3-yl)cyclohex-1-en-1-yl)methyl)piperazin-1-yl)-N-((3-nitro-4-(((tetrahydro-2H-pyran-4-yl)methyl)amino)phenyl)sulfonyl)benzamide]	0.0326
CC1(C)CCC(CN2CCN(c3ccc(C(=O)NS(=O)(=O)c4ccc(NCC5CCOCC5)c([N+](=O)[O-])c4)c(Oc4cnc5[nH]ccc5c4)c3)CC2)=C(c2csc(C(F)(F)F)c2)C1 [Example 3, 2-((1H-pyrrolo[2,3-b]pyridin-5-yl)oxy)-4-(4-((4,4-dimethyl-2-(5-(trifluoromethyl)thiophen-3-yl)cyclohex-1-en-1-yl)methyl)piperazin-1-yl)-N-((3-nitro-4-(((tetrahydro-2H-pyran-4-yl)methyl)amino)phenyl)sulfonyl)benzamide]	0.0456
Cc1ccc(C2=C(CN3CCN(c4ccc(C(=O)NS(=O)(=O)c5ccc(NCC6CCOCC6)c([N+](=O)[O-])c5)c(Oc5cnc6[nH]ccc6c5)c4)CC3)CCC(C)(C)C2)s1 [Example 6, 2-((1H-pyrrolo[2,3-b]pyridin-5-yl)oxy)-4-(4-((4,4-dimethyl-2-(5-methylthiophen-2-yl)cyclohex-1-en-1-yl)methyl)piperazin-1-yl)-N-((3-nitro-4-(((tetrahydro-2H-pyran-4-yl)methyl)amino)phenyl)sulfonyl)benzamide]	0.0339
CC(C)c1csc(C2=C(CN3CCN(c4ccc(C(=O)NS(=O)(=O)c5ccc(NCC6CCOCC6)c([N+](=O)[O-])c5)c(Oc5cnc6[nH]ccc6c5)c4)CC3)CCC(C)(C)C2)c1 [Example 8, 2-((1H-pyrrolo[2,3-b]pyridin-5-yl)oxy)-4-(4-((2-(4-isopropylthiophen-2-yl)-4,4-dimethylcyclohex-1-en-1-yl)methyl)piperazin-1-yl)-N-((3-nitro-4-(((tetrahydro-2H-pyran-4-yl)methyl)amino)phenyl)sulfonyl)benzamide]	0.0309
CC(C)c1csc(C2=C(CN3CCN(c4ccc(C(=O)NS(=O)(=O)c5ccc(NC[C@H]6COCCO6)c([N+](=O)[O-])c5)c(Oc5cnc6[nH]ccc6c5)c4)CC3)CCC(C)(C)C2)c1 [Example 10, (S)—N-((4-(((1,4-dioxan-2-yl)methyl)amino)-3-nitrophenyl)sulfonyl)-2-((1H-pyrrolo[2,3-b]pyridin-5-yl)oxy)-4-(4-((2-(4-isopropylthiophen-2-yl)-4,4-dimethylcyclohex-1-en-1-yl)methyl)piperazin-1-yl)benzamide]	0.0277
CC(C)c1sccc1C1=C(CN2CCN(c3ccc(C(=O)NS(=O)(=O)c4ccc(NCC5CCOCC5)c([N+](=O)[O-])c4)c(Oc4cnc5[nH]ccc5c4)c3)CC2)CCC(C)(C)C1 [Example 11, 2-((1H-pyrrolo[2,3-b]pyridin-5-yl)oxy)-4-(4-((2-(2-isopropylthiophen-3-yl)-4,4-dimethylcyclohex-1-en-1-yl)-methyl)piperazin-1-yl)-N-((3-nitro-4-(((tetrahydro-2H-pyran-4-yl)methyl)amino)-phenyl)sulfonyl)benzamide]	0.0376
CC1(C)CCC(CN2CCN(c3ccc(C(=O)NS(=O)(=O)c4ccc(NC[C@H]5COCCO5)c([N+](=O)[O-])c4)c(Oc4cnc5[nH]ccc5c4)c3)CC2)=C(c2cc3c(s2)CCN(c2ccc(F)cc2)C3)C1 [Example 15, (S)—N-((4-(((1,4-dioxan-2-yl)methyl)amino)-3-nitrophenyl)sulfonyl)-2-((1H-pyrrolo[2,3-b]pyridin-5-yl)oxy)-4-(4-((2-(5-(4-fluorophenyl)-4,5,6,7-tetrahydrothieno[3,2-c]pyridin-2-yl)-4,4-dimethylcyclohex-1-en-1-yl)methyl)piperazin-1-yl)benzamide]	0.0651
CC1(C)CCC(CN2CCN(c3ccc(C(=O)NS(=O)(=O)c4ccc(NC[C@H]5CC[C@](C)(O)CC5)c([N+](=O)[O-])c4)c(Oc4cnc5[nH]ccc5c4)c3)CC2)=C(c2cc3c(s2)CCN(c2ccc(F)cc2)C3)C1 [Example 16, 2-((1H-pyrrolo[2,3-b]pyridin-5-yl)oxy)-4-(4-((2-(5-(4-fluorophenyl)-4,5,6,7-tetrahydrothieno[3,2-c]pyridin-2-yl)-4,4-dimethylcyclohex-1-en-1-yl)methyl)piperazin-1-yl)-N-((4-((((1r,4r)-4-hydroxy-4-methylcyclohexyl)methyl)amino)-3-nitrophenyl)sulfonyl)benzamide]	0.0947
CC1(C)CCC(CN2CCN(c3ccc(C(=O)NS(=O)(=O)c4ccc(NC[C@H]5COCCO5)c([N+](=O)[O-])c4)c(Oc4cnc5[nH]ccc5c4)c3)CC2)=C(c2cc(NC(=O)c3ccccc3)cs2)C1 [Example 18, (S)—N-((4-(((1,4-dioxan-2-yl)methyl)amino)-3-nitrophenyl)sulfonyl)-2-((1H-pyrrolo[2,3-b]pyridin-5-yl)oxy)-4-(4-((2-(4-benzamidothiophen-2-yl)-4,4-dimethylcyclohex-1-en-1-yl)methyl)piperazin-1-yl)benzamide]	0.0663
CC1(C)CCC(CN2CCN(c3ccc(C(=O)NS(=O)(=O)c4ccc(NC[C@H]5COCCO5)c([N+](=O)[O-])c4)c(Oc4cnc5[nH]ccc5c4)c3)CC2)=C(c2cc(Nc3ncccn3)cs2)C1 [Example 19, (S)—N-((4-(((1,4-dioxan-2-yl)methyl)amino)-3-nitrophenyl)sulfonyl)-2-((1H-pyrrolo[2,3-b]pyridin-5-yl)oxy)-4-(4-((4,4-dimethyl-2-(4-(pyrimidin-2-ylamino)thiophen-2-yl)cyclohex-1-en-1-yl)methyl)piperazin-1-yl)benzamide]	0.0409
CC1(C)CCC(CN2CCN(c3ccc(C(=O)NS(=O)(=O)c4ccc(NCC5CCOCC5)c([N+](=O)[O-])c4)c(Oc4cnc5[nH]ccc5c4)c3)CC2)=C(c2csc(CN3CCOCC3)c2)C1 [Example 21, 2-((1H-pyrrolo[2,3-b]pyridin-5-yl)oxy)-4-(4-((4,4-dimethyl-2-(5-(morpholinomethyl)thiophen-3-yl)cyclohex-1-en-1-yl)methyl)piperazin-1-yl)-N-((3-nitro-4-(((tetrahydro-2H-pyran-4-yl)methyl)amino)phenyl)sulfonyl)benzamide]	0.0642
